Experimental data: patent US9790218B2, “Small molecule activators of calcium-activated chloride channels and methods of use” (The Regents of the University of California, priority 2011, dated 2017)

Target: T1, TMEM16A (Homo sapiens, UniProt Q5XXA6, DEL476-501)
T1 construct: expressed in transfected cells
T1 sequence (Q5XXA6 with tags, fused parts or gaps isoform Q5XXA6-5 DEL539-564): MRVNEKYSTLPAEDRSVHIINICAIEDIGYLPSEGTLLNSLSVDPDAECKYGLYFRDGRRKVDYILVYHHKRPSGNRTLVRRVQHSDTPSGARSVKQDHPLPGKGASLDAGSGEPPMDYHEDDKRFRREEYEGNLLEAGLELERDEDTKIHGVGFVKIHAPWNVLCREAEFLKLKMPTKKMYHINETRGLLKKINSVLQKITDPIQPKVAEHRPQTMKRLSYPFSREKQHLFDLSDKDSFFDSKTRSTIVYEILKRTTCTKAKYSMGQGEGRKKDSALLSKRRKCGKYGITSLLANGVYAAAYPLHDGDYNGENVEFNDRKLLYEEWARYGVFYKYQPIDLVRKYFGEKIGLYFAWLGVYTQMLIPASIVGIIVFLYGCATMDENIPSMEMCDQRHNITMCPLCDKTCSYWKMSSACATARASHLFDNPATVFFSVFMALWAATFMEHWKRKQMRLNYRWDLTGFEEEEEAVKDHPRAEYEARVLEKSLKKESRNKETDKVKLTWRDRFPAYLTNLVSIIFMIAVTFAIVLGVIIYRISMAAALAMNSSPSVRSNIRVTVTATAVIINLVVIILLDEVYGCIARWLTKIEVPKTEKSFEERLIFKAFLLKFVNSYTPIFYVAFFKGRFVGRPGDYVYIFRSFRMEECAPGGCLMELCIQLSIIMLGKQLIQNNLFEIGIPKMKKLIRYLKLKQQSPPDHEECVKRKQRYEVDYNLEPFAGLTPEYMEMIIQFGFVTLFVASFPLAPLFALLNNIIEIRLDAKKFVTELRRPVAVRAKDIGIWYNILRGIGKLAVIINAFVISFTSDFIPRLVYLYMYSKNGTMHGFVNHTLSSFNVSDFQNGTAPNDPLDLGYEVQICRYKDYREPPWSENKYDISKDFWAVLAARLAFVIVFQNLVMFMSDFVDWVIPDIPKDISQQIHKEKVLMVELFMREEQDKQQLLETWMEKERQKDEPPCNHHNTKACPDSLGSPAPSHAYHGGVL
Test: Whole-cell patch-clamp of TMEM16A-expressing FRT cells
Type: cell-based
Method: FIG. 4A-D. Patch-clamp analysis of Ca^2+ requirements for TMEM16A activation by Eact and Fact. FIG. 4A. Apical membrane current measured in TMEM16A-expressing FRT cells. ER calcium stores were depleted by CPA (50 μM, 30 min) and 0 CaCl2 in bath. ATP (100 μM), Fact (10 μM), Eact (10 μM) and T16Ainh-A01 (10 μM) were added as indicated. FIG. 4B and FIG. 4C. Whole-cell TMEM16A currents were recorded at a holding potential at 0 mV, and pulsing to voltages between ±80 mV (in steps of 20 mV) in the absence and presence of 3 μM Eact or 10 μM Fact. Free calcium concentration of pipette solutions were clamped at 0 μM, 0.07 μM, 0.15 μM, and 1 μM. Eact (3 μM) or Fact (10 μM) added as indicated. (right) Current/voltage (I/V) plots of mean currents at the middle of each voltage pulse. The Ca^2+ concentration is indicated to the right. FIG. 4D. TMEM16A inhibited by 10 μM T16Ainh-A01 after stimulation by Eact or Fact.
Whole-cell recordings were made at room temperature on TMEM16A-expressing FRT cells and human submandibular A253 cells. The bath solution contained (in mM): 140 NMDG-Cl, 1 CaCl2, 1 MgCl2, 10 glucose and 10 HEPES (pH 7.4). The pipette solution contained (in mM): 130 CsCl, 0.5 EGTA, 1 MgCl2, 1 Tris-ATP, and 10 HEPES (pH 7.2). Different concentrations of free calcium in pipette solution were obtained by replacing 0.5 mM EGTA with 5 mM EGTA, and using different amounts of CaCl2 in the pipette solution. Pipettes were pulled from borosilicate glass and had resistances of 3-5 MΩ after fire polishing. Seal resistances were between 3 and 10 GΩ. After establishing the whole-cell configuration, TMEM16A was activated by 100 μM ATP, TMEM16A activators or different concentrations of free calcium in the pipette solution. Whole-cell currents were elicited by applying hyperpolarizing and depolarizing voltage pulses from a holding potential of 0 mV to potentials between −100 mV and +100 mV in steps of 20 mV. Recordings were made at room temperature using an Axopatch-200B (Axon Instruments). Currents were digitized with a Digidata 1440A converter (Axon Instruments), filtered at […].
The Ca^2+ dependence of TMEM16A activation by Eact and Fact was investigated. […] Whole-cell currents were then recorded by patch-clamp at different cytoplasmic (pipette) [Ca^2+]. […] (FIG. 4B, bottom and right). […] Thus, Eact and Fact activate TMEM16A by different mechanisms: Eact as a largely Ca^2+-independent ‘activator’, and Fact as a ‘potentiator’ of Ca^2+ activation.

block of Cl^− currents produced by Eact or Fact (10 μM T16Ainh-A01) | SMILES | maximum TMEM16A Cl^− current at high [Ca^2+] (3 μM Eact or 10 μM Fact) | whole-cell Cl^− current at submaximal Ca^2+ (compared to no compound, 10 μM Fact) | whole-cell TMEM16A Cl^− current at 0 Ca^2+ (pipette 0 Ca^2+, 3 μM Eact or 10 μM Fact)
– | O=C(Nc1ccc(Br)cc1)c1cccc(-n2cnnn2)c1 [Fact, N-(4-bromophenyl)-3-(1H-tetrazol-1-yl)benzamide] | not further increased | increased Cl^− current | did not product Cl^− current
completely blocked | CCc1c(C)nc(SCC(=O)Nc2nc(-c3ccc(OC)cc3)cs2)[nH]c1=O [T16Ainh-A01, reference compound] | – | – | –
